Test results taken from ChEMBL document CHEMBL3862034, “Measurement of Ligand-Target Residence Times by 1H Relaxation Dispersion NMR Spectroscopy” (J Med Chem, 2016).

Tests used:
Bos taurus [1] = species on record: Bos taurus; experiment: Binding affinity to bovine trypsin assessed as ligand-target residence time at 1H-4/5 resonance by (1)H relaxation dispersion NMR spectroscopy
Bos taurus [2] = species on record: Bos taurus; experiment: Binding affinity to bovine trypsin assessed as ligand-target residence time at 1H-9 resonance by (1)H relaxation dispersion NMR spectroscopy
Fusobacterium nucleatum = experiment: Binding affinity to Fusobacterium nucleatum class I aptamer assessed as ligand-target residence time at 1H-8 resonance by (1)H relaxation dispersion NMR spectroscopy
[3] = tested on: Caldanaerobacter subterraneus subsp. tengcongensis; experiment: Binding affinity to Thermoanaerobacter tengcongensis class I aptamer assessed as ligand-target residence time at 1H-8 resonance by (1)H relaxation dispersion NMR spectroscopy

Row | SMILES | TIME (Bos taurus [1]) [h] | TIME (Bos taurus [2]) [h] | TIME (Fusobacterium nucleatum) [h] | TIME [3] [h]
1 | Nc1ccc2cc3ccc(N)cc3nc2c1 | 5.28e-08 | 5.56e-08 | – | –
2 | NCc1c[nH]c2nc(N)[nH]c(=O)c12 | – | – | 1.75e-07 | 6.39e-08
